From ChEMBL document CHEMBL3885861, “Open TG-GATES”

Organism: Rattus norvegicus
Assay: Open TG-GATES - Regimen: Single
Format: toxicity, organism-based, Sprague-Dawley
Parameters: regimen Single, gender Male, age 6 weeks
Details: in vivo, po, 100 mg/kg, route gavage, dose level Low; for APTT / Bas / Eos / Fbg / Hb / Ht / Lym / MCH / MCHC / MCV / Mono / Neu / PT / Plat / RBC / Ret / WBC: tissue Blood; for KIDNEY_L / KIDNEY_R / KIDNEY_TOTAL: tissue Kidney; for LIVER: tissue Liver; for A/G / ALP / ALT / AST / BUN / CRE / Ca / Cl / DBIL / GLC / IP / K / LDH / Na / PL / RALB / TBIL / TC / TG / TP / gamma-GTP: tissue Plasma

COc1ccc(Cl)cc1C(=O)NCCc1ccc(S(=O)(=O)NC(=O)NC2CCCCC2)cc1 [GLYBURIDE]
TERMINAL_BW (3 h): 218.6 g | APTT (3 h): 19.3 s | Bas (3 h): 0% | Eos (3 h): 1% | Fbg (3 h): 215.8 mg/dL | Hb (3 h): 13.2 g/dL | Ht (3 h): 41% | Lym (3 h): 69.8% | MCH (3 h): 20.2 pg | MCHC (3 h): 32.3% | MCV (3 h): 62.6 fL | Mono (3 h): 2.8% | Neu (3 h): 25.4% | PT (3 h): 12.3 s | Plat (3 h): 125.3 x10_4/uL | RBC (3 h): 654.4 x10_4/ul | Ret (3 h): 8.1% | WBC (3 h): 93.1 x10_2/uL | KIDNEY_L (3 h): 0.9 g | KIDNEY_R (3 h): 1 g | KIDNEY_TOTAL (3 h): 1.9 g | LIVER (3 h): 9.7 g | A/G (3 h): 1.6 | ALP (3 h): 990.2 IU/L | ALT (3 h): 44.4 IU/L | AST (3 h): 69.4 IU/L | BUN (3 h): 12.8 mg/dL | CRE (3 h): 0.4 mg/dL | Ca (3 h): 10.7 mg/dL | Cl (3 h): 103 meq/L | DBIL (3 h): 0.1 mg/dL | GLC (3 h): 141 mg/dL | IP (3 h): 8.2 mg/dL | K (3 h): 3.7 meq/L | LDH (3 h): 145.6 IU/L | Na (3 h): 140.8 meq/L | PL (3 h): 174.8 mg/dL | RALB (3 h): 3.5 g/dL | TBIL (3 h): 0.2 mg/dL | TC (3 h): 89.8 mg/dL | TG (3 h): 87 mg/dL | TP (3 h): 5.7 g/dL | gamma-GTP (3 h): 1.4 IU/L | TERMINAL_BW (6 h): 214.4 g | APTT (6 h): 19.6 s | Bas (6 h): 0% | Eos (6 h): 0.8% | Fbg (6 h): 222.6 mg/dL | Hb (6 h): 13.9 g/dL | Ht (6 h): 42.5% | Lym (6 h): 76.2% | MCH (6 h): 20.6 pg | MCHC (6 h): 32.6% | MCV (6 h): 63.3 fL | Mono (6 h): 2.8% | Neu (6 h): 18.8% | PT (6 h): 12.7 s | Plat (6 h): 118.8 x10_4/uL | RBC (6 h): 671.8 x10_4/ul | Ret (6 h): 7.8% | WBC (6 h): 101.9 x10_2/uL | KIDNEY_L (6 h): 0.9 g | KIDNEY_R (6 h): 0.9 g | KIDNEY_TOTAL (6 h): 1.8 g | LIVER (6 h): 9.3 g | A/G (6 h): 1.7 | ALP (6 h): 837 IU/L | ALT (6 h): 40.2 IU/L | AST (6 h): 67.4 IU/L | BUN (6 h): 13 mg/dL | CRE (6 h): 0.4 mg/dL | Ca (6 h): 10.7 mg/dL | Cl (6 h): 104.4 meq/L | DBIL (6 h): 0.098 mg/dL | GLC (6 h): 168.6 mg/dL | IP (6 h): 8.6 mg/dL | K (6 h): 3.8 meq/L | LDH (6 h): 136 IU/L | Na (6 h): 141.8 meq/L | PL (6 h): 145.2 mg/dL | RALB (6 h): 3.5 g/dL | TBIL (6 h): 0.2 mg/dL | TC (6 h): 72.2 mg/dL | TG (6 h): 64.8 mg/dL | TP (6 h): 5.6 g/dL | gamma-GTP (6 h): 1.2 IU/L | TERMINAL_BW (9 h): 211.4 g | APTT (9 h): 19.7 s | Bas (9 h): 0% | Eos (9 h): 1% | Fbg (9 h): 223.4 mg/dL | Hb (9 h): 13.4 g/dL | Ht (9 h): 41.4% | Lym (9 h): 79.8% | MCH (9 h): 20.5 pg | MCHC (9 h): 32.5% | MCV (9 h): 63.2 fL | Mono (9 h): 3% | Neu (9 h): 15.6% | PT (9 h): 12.9 s | Plat (9 h): 122.6 x10_4/uL | RBC (9 h): 654.8 x10_4/ul | Ret (9 h): 8.2% | WBC (9 h): 77.5 x10_2/uL | KIDNEY_L (9 h): 0.9 g | KIDNEY_R (9 h): 0.9 g | KIDNEY_TOTAL (9 h): 1.9 g | LIVER (9 h): 8.7 g | A/G (9 h): 1.6 | ALP (9 h): 982.4 IU/L | ALT (9 h): 30.2 IU/L | AST (9 h): 69.2 IU/L | BUN (9 h): 12.4 mg/dL | CRE (9 h): 0.4 mg/dL | Ca (9 h): 10.3 mg/dL | Cl (9 h): 104.2 meq/L | DBIL (9 h): 0.084 mg/dL | GLC (9 h): 153.8 mg/dL | IP (9 h): 10.4 mg/dL | K (9 h): 3.4 meq/L | LDH (9 h): 136.6 IU/L | Na (9 h): 142.4 meq/L | PL (9 h): 143 mg/dL | RALB (9 h): 3.4 g/dL | TBIL (9 h): 0.1 mg/dL | TC (9 h): 79.6 mg/dL | TG (9 h): 42 mg/dL | TP (9 h): 5.6 g/dL | gamma-GTP (9 h): 1 IU/L | TERMINAL_BW (24 h): 227.7 g | APTT (24 h): 18.4 s | Bas (24 h): 0.4% | Eos (24 h): 1% | Fbg (24 h): 211.8 mg/dL | Hb (24 h): 13 g/dL | Ht (24 h): 37.6% | Lym (24 h): 76.8% | MCH (24 h): 21.7 pg | MCHC (24 h): 34.5% | MCV (24 h): 62.9 fL | Mono (24 h): 3.2% | Neu (24 h): 18.8% | PT (24 h): 13.1 s | Plat (24 h): 119.3 x10_4/uL | RBC (24 h): 599 x10_4/ul | Ret (24 h): 7.1% | WBC (24 h): 83.2 x10_2/uL | KIDNEY_L (24 h): 1 g | KIDNEY_R (24 h): 0.9 g | KIDNEY_TOTAL (24 h): 1.9 g | LIVER (24 h): 9.5 g | A/G (24 h): 1.7 | ALP (24 h): 950.8 IU/L | ALT (24 h): 35.4 IU/L | AST (24 h): 68.4 IU/L | BUN (24 h): 14.6 mg/dL | CRE (24 h): 0.4 mg/dL | Ca (24 h): 10.7 mg/dL | Cl (24 h): 103.4 meq/L | DBIL (24 h): 0.09 mg/dL | GLC (24 h): 212.4 mg/dL | IP (24 h): 7.9 mg/dL | K (24 h): 3.5 meq/L | LDH (24 h): 174.2 IU/L | Na (24 h): 142.2 meq/L | PL (24 h): 136 mg/dL | RALB (24 h): 3.4 g/dL | TBIL (24 h): 0.1 mg/dL | TC (24 h): 72.2 mg/dL | TG (24 h): 67.4 mg/dL | TP (24 h): 5.4 g/dL | gamma-GTP (24 h): 1.4 IU/L
